Key:
[1] = Solubility screen of the free acid in various solvents (incremental solvent addition, visual); type: physicochemical; details: Ca. 10 mg free acid
Source text: The free base (or zwitterionic) Compound 1 can be dissolved in unbuffered water, a range of organic solvents, mixtures of organic solvents and mixtures of solvents with unbuffered water. The solvents assessed were 1,1-dimethoxyethane, acetonitrile, ethanol, 1,2-dichloroethane, benzonitrile, ethyl acetate, 1,4-dioxane, anisole, heptane, 2-butanol, cumene, hexane, 2-propanol, cyclohexane, isopropyl acetate, 4-methyl-pentan-2-one, dichloromethane, methanol, acetone, diisopropyl ether (DIPE), isobutyl acetate, tetralin, toluene, methylethyl ketone, N-methylpyrrolidone, tert-butylmethyl ether, nitromethane, pyridine, tetrahydrofuran.
Ca. 10 mg of the free acid of Compound 1 was weighed into 2 mL HPLC vials prior to the addition of solvent in 100-250 μL increments up to a maximum of 1750 μL. After each addition of solvent the samples were briefly shaken to encourage dissolution and visually inspected for signs of any remaining solid. Once the maximum volume of solvent had been added, 1.1 eq of 1M NaOH(aq) solution was also added, to give an indication as to which of the solvents would yield a suitable salt form. The samples were visually inspected prior to maturation for 2 days, after which all were inspected again. All the samples were then left to evaporate at RT to generate solid material.

[2] = Aqueous solubility assessment of salt screen solids (visual); details: Ca. 5 mg in up to 4000 μL water (1.25 mg/ml), shaken overnight at 50° C.; for Solubility assessment (dissolution in deionized water), salt from MIBK: salt prepared from MIBK; for Solubility assessment (dissolution in deionized water), salt from DIPE: salt prepared from DIPE; for Solubility assessment (dissolution in deionized water), salt From Ethanol: salt prepared from ethanol
Procedure: Aqueous solubility assessment was performed using Ca. […] These samples were added to aliquots of deionized water up to a maximum of 4000 μL with the samples being shaken between additions to encourage dissolution prior to a visual inspection.

[3] = Aqueous solubility, 24 h shake, gravimetric; type: physicochemical; details: thermodynamic from solid, deionized water
Procedure: Ca. 50 mg of each of the salts were weighed into a 2 mL HPLC vial prior to the addition of 1 mL of deionized water. […] The experiment was also repeated at 50° C.

FaSSIF/FeSSIF solubility = type: physicochemical; details: thermodynamic from solid, shaken 24 h at 37° C.
Procedure: Ca. 25 mg of each of the salts were weighed into a 2 mL HPLC vial prior to the addition of 1 mL of Fasting State Simulated Intenstinal Fluid (FaSSIS) solution. […] The experiment was also repeated using Fed State Simulated Intestinal Fluid (FeSSIF) solution.

[4] = Stability at 40° C./75% RH; type: physicochemical; details: for Chemical purity post stability (40° C./75% RH): HPLC
pH1 stability = type: physicochemical; details: pH 1 buffer, 4 h at 37° C.; for Chemical purity post stability (pH 1 for 4 h): HPLC; for 1H NMR post stability (pH 1 for 4 h): cell continues: salt form is no longer present
Procedure: Ca. 25 mg of each of the salts were weighed into a 2 mL HPLC vial prior to the addition of 1 mL of pH 1 buffer. The samples were then shaken for 4 h at 37° C. before being filtered into SPE cartridges and dried overnight.

pH of saturated solution = type: physicochemical; details: saturated solution in deionized water, room temperature
Procedure: A saturated solution of each of the salts was prepared in 5 mL of deionized water at room temperature prior to analysis.

[5] = Dynamic vapor sorption (DVS); type: physicochemical; details: for XRPD post DVS: after double cycle 0-90% RH
Procedure: SMS DVS Intrinsic dynamic vapour sorption instrument using DVS-Intrinsic control software v1.0.6.0. Analysis of the data was performed using the DVS analysis suite v7.0.13.1 macro program embedded in Microsoft Excel. Analysis was performed as a wt % change from 0-90% RH with isothermal plots also being examined.
Ca. 10-15 mg of sample was weighed into a stainless steel DVS basket before submitting for analysis. The samples were analysed over the range of 0-90% RH with a maximum time of 6 hours per humidity stage. Each sample was exposed to a double cycle. XRPD analysis of all samples was performed post-DVS.

Molecule: O=C(CSc1ccc(Br)cc1)Nc1cn(CCc2ccccc2)nc1C(=O)O [Compound 1, 4-(2-((4-bromophenyl)thio)acetamido)-1-phenethyl-1H-pyrazole-3-carboxylic acid]
- Solvent Addition ([1]; solvent 1,1-Dimethoxyethane, increments up to maximum 1750 μL): 1750 µL
- Solvent Addition ([1]; solvent 1,2-Dichloroethane, maximum 1750 μL): 1750 µL
- Solvent Addition ([1]; solvent 1,4-Dioxane, maximum 1750 μL): 750 µL
- Solvent Addition ([1]; solvent 2-Butanol, maximum 1750 μL): 1750 µL
- Solvent Addition ([1]; solvent 2-Propanol, maximum 1750 μL): 1750 µL
- Solvent Addition ([1]; solvent 4-methyl-pentan-2-one, maximum 1750 μL): 1750 µL
- Solvent Addition ([1]; solvent Acetone, maximum 1750 μL): 1750 µL
- Solvent Addition ([1]; solvent Acetonitrile, maximum 1750 μL): 1750 µL
- Solvent Addition ([1]; solvent Anisole, maximum 1750 μL): 1750 µL
- Solvent Addition ([1]; solvent Benzonitrile, maximum 1750 μL): 1750 µL
- Solvent Addition ([1]; solvent Cumene, maximum 1750 μL): 1750 µL
- Solvent Addition ([1]; solvent Cyclohexane, maximum 1750 μL): 1750 µL
- Solvent Addition ([1]; solvent Dichloromethane, maximum 1750 μL): 1750 µL
- Solvent Addition ([1]; solvent Diisopropyl ether, maximum 1750 μL): 1750 µL
- Solvent Addition ([1]; solvent Ethanol, maximum 1750 μL): 1750 µL
- Solvent Addition ([1]; solvent Ethyl acetate, maximum 1750 μL): 1750 µL
- Solvent Addition ([1]; solvent Heptane, maximum 1750 μL): 1750 µL
- Solvent Addition ([1]; solvent Hexane, maximum 1750 μL): 1750 µL
- Solvent Addition ([1]; solvent Isobutyl Acetate, maximum 1750 μL): 1750 µL
- Solvent Addition ([1]; solvent Isopropyl acetate, maximum 1750 μL): 1750 µL
- Solvent Addition ([1]; solvent Methanol, maximum 1750 μL): 1750 µL
- Solvent Addition ([1]; solvent Methylethyl ketone, maximum 1750 μL): 1750 µL
- Solvent Addition ([1]; solvent N-Methylpyrrolidone, maximum 1750 μL): 250 µL
- Solvent Addition ([1]; solvent Nitromethane, maximum 1750 μL): 1750 µL
- Solvent Addition ([1]; solvent Pyridine, maximum 1750 μL): 1750 µL
- Solvent Addition ([1]; solvent Tetrahydrofuran, maximum 1750 μL): 750 µL
- Solvent Addition ([1]; solvent Tetralin, maximum 1750 μL): 1750 µL
- Solvent Addition ([1]; solvent Toluene, maximum 1750 μL): 1750 µL
- Solvent Addition ([1]; solvent Water, maximum 1750 μL): 1750 µL
- Solvent Addition ([1]; solvent tert-Butylmethyl ether, maximum 1750 μL): 1750 µL

Molecule: O=C(CSc1ccc(Br)cc1)Nc1cn(CCc2ccccc2)nc1C(=O)O.c1ccc(CNCCNCc2ccccc2)cc1 [N,N′-Dibenzylethylenediamine, salt of 4-(2-((4-bromophenyl)thio)acetamido)-1-phenethyl-1H-pyrazole-3-carboxylic acid and N,N′-dibenzylethylenediamine]
- Solubility assessment (dissolution in deionized water), salt from MIBK [2]: No dissolution

Molecule: CCNC[C@H](O)[C@@H](O)[C@H](O)[C@H](O)CO.O=C(CSc1ccc(Br)cc1)Nc1cn(CCc2ccccc2)nc1C(=O)O [N-Ethylglucamine, salt of 4-(2-((4-bromophenyl)thio)acetamido)-1-phenethyl-1H-pyrazole-3-carboxylic acid and N-ethylglucamine]
- Solubility assessment (dissolution in deionized water), salt from DIPE [2]: Partial
- Solubility assessment (dissolution in deionized water), salt From Ethanol [2]: Partial

Molecule: CNC[C@H](O)[C@@H](O)[C@H](O)[C@H](O)CO.O=C(CSc1ccc(Br)cc1)Nc1cn(CCc2ccccc2)nc1C(=O)O [N-Methylglucamine, salt of 4-(2-((4-bromophenyl)thio)acetamido)-1-phenethyl-1H-pyrazole-3-carboxylic acid and N-methylglucamine]
- Solubility assessment (dissolution in deionized water), salt From Ethanol [2]: Partial

Molecule: O=C(CSc1ccc(Br)cc1)Nc1cn(CCc2ccccc2)nc1C(=O)[O-].[K+] [potassium salt, 4-(2-((4-bromophenyl)thio)acetamido)-1-phenethyl-1H-pyrazole-3-carboxylic acid potassium salt]
- Solubility assessment (dissolution in deionized water), salt from DIPE [2]: Complete
- Solubility assessment (dissolution in deionized water), salt from MIBK [2]: Partial
- Solubility assessment (dissolution in deionized water), salt From Ethanol [2]: Complete
- solubility at 24 h ([3]; shaken 24 h at 25° C., read-out: Aqueous solubility @ 25° C.): 6.6 mg/mL
- solubility at 24 h ([3]; shaken 24 h at 50° C.): 16.2 mg/mL
- solubility at 24 h (FaSSIF/FeSSIF solubility; FaSSIF, read-out: FaSSIF solubility @ 37° C.): 1.5 mg/mL
- solubility at 24 h (FaSSIF/FeSSIF solubility; FeSSIF, read-out: FeSSIF solubility @ 37° C.): 1.6 mg/mL
- Observation post stability (40° C./75% RH) [4]: No visible change
- XRPD post stability (40° C./75% RH) [4]: Partially crystalline-no change in form
- Chemical purity post stability (40° C./75% RH) [4]: >99.9% (by peak area)
- Observations post stability (pH 1 for 4 h) (pH1 stability): No visual change
- XRPD post stability (pH 1 for 4 h) (pH1 stability): Partially crystalline: change in crystalline form compared to the
- Chemical purity post stability (pH 1 for 4 h) (pH1 stability): >99.9% (by peak area)
- 1H NMR post stability (pH 1 for 4 h) (pH1 stability): Reduction in chemical shifts, indicating that salt form is no
- pH of rm temp sat'd sol'n (pH of saturated solution): 9.21
- DVS mass increase between 0-90% RH, first cycle ([5]; 0-90% RH): Ca. 5.7% mass increase between 0-90% RH on the first cycle
- XRPD post DVS [5]: Partially crystalline-pattern is different from free acid indicating

Molecule: salt of 4-(2-((4-bromophenyl)thio)acetamido)-1-phenethyl-1H-pyrazole-3-carboxylic acid and N-(phenylmethyl)benzeneethaneamine [N-(Phenylmethyl) benzeneethaneamine]
- Solubility assessment (dissolution in deionized water), salt from DIPE [2]: No dissolution
- Solubility assessment (dissolution in deionized water), salt From Ethanol [2]: No dissolution

Molecule: salt of 4-(2-((4-bromophenyl)thio)acetamido)-1-phenethyl-1H-pyrazole-3-carboxylic acid and calcium acetate
- Solubility assessment (dissolution in deionized water), salt From Ethanol [2]: No dissolution

Molecule: salt of 4-(2-((4-bromophenyl)thio)acetamido)-1-phenethyl-1H-pyrazole-3-carboxylic acid and diethylamine [diethylamine salt]
- Observation post stability (40° C./75% RH) [4]: No visible change
- XRPD post stability (40° C./75% RH) [4]: Crystalline-no change in form
- Chemical purity post stability (40° C./75% RH) [4]: >99.9% (by peak area)
- Observations post stability (pH 1 for 4 h) (pH1 stability): No visual change
- Chemical purity post stability (pH 1 for 4 h) (pH1 stability): >99.9% (by peak area)
- 1H NMR post stability (pH 1 for 4 h) (pH1 stability): Reduction in chemical shifts, indicating that salt form is no
- DVS mass increase between 0-90% RH, first cycle ([5]; 0-90% RH): Ca. 0.1% mass increase between 0-90% RH on the first cycle
- DVS mass increase between 0-90% RH, second cycle ([5]; 0-90% RH, second cycle): Ca. 0.1% mass increase between 0-90% RH on the first cycle
- XRPD post DVS [5]: Crystalline-no change in form

Molecule: salt of 4-(2-((4-bromophenyl)thio)acetamido)-1-phenethyl-1H-pyrazole-3-carboxylic acid and magnesium acetate
- Solubility assessment (dissolution in deionized water), salt From Ethanol [2]: No dissolution

Molecule: salt of 4-(2-((4-bromophenyl)thio)acetamido)-1-phenethyl-1H-pyrazole-3-carboxylic acid and tromethamine
- Solubility assessment (dissolution in deionized water), salt From Ethanol [2]: No dissolution

Reference: patent US11242321B2, “Salt forms of organic compound” (KAINOS MEDICINE INC., priority 2018, dated 2022)
